From ChEMBL document CHEMBL1126089, “2-Alkynyl derivatives of adenosine and adenosine-5'-N-ethyluronamide as selective agonists at A2 adenosine receptors” (J Med Chem, 1992) come the findings set out here.

pIC50, pKi: −log10 of the molar value.

As usually defined, the Emax is the greatest response seen or fitted, relative to the assay's reference. What is called Ki is the equilibrium dissociation constant of an inhibitor or competing ligand from its target. Low values mean higher affinity, high ones lower affinity. The term pKi denotes the Ki on a negative log10 scale, so that one unit is a factor of ten. A high value points to a small Ki. As a reminder, the EC50 is the concentration needed to bring the measured effect to its halfway point. Read a low EC50 as higher potency in that assay. The pIC50 is the negative decadic logarithm of the IC50, by convention in mol/L. Higher therefore signals a low IC50.

In experiment [1] the target is T1, Adenosine A2 receptor (Homo sapiens, UniProt P29275+P29274). In words: Agonistic activity at Adenosine A2 receptor. Type of experiment: functional.
Experiment [2] addresses T1, Adenosine A2 receptor. In words: Binding affinity against A2 adenosine receptors from human platelet membranes using [3H]NECA.
In experiment [3] the target is T2, Adenosine receptor A1 (Rattus norvegicus, UniProt P25099).
T2 sequence (P25099 whole entry): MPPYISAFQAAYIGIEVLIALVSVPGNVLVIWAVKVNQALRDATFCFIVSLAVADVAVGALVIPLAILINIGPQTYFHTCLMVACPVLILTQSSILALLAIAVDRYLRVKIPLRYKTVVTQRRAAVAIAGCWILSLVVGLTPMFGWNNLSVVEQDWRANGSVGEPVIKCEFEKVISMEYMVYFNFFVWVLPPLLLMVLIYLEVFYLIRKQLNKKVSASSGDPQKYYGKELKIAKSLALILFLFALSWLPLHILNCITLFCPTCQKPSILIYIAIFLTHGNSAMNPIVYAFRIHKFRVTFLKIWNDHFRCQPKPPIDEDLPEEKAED
Description: Binding affinity against low affinity component of Adenosine A1 receptor from rat brain membranes using [3H]DPCPX. Format: cell membranes, Membrane.

Experiment [4] concerns the target T1, Adenosine A2 receptor. Description: Maximal NECA stimulation of adenylate cyclase via Adenosine A2 receptor in human platelet membranes. Type of experiment: cell membranes.
For experiment [5], the target named is T3, Adenosine A2 receptor (Rattus norvegicus, UniProt P29276+P30543). Description: Binding affinity against Adenosine A2 receptor from rat striatal membrane with 50 nM CPA using [3H]NECA.
Experiment [6] addresses T1, Adenosine A2 receptor. In words: Maximal NECA stimulation of adenylate cyclase via A2 receptors in human platelet membranes. Type of experiment: cell membranes.
A short description of experiment [7]: Selectivity as ratio of IC50 for A1 adenosine receptor compared to EC50 for A2 adenosine receptor.
Experiment [8] deals with T2, Adenosine receptor A1. In words: Binding affinity against Adenosine A1 receptor from rat brain membranes using [3H]CCPA.
Experiment [9] addresses T2, Adenosine receptor A1. Description: Binding affinity against high affinity component of Adenosine A1 receptor from rat brain membranes using [3H]-DPCPX. Type of experiment: cell membranes, Membrane.
Experiment [10] deals with T1, Adenosine A2 receptor. In words: Agonistic activity at adenosine A2 receptor. Type of experiment: functional.
Experiment [11] deals with T2, Adenosine receptor A1.
Description: Binding affinity against high affinity component of adenosine A1 receptors from rat brain membranes using [3H]DPCPX
Experiment [12] addresses T2, Adenosine receptor A1. In words: Inhibition of adenylate cyclase via adenosine A1 receptors in rat fat cell membranes. Format: functional, Membrane.
Experiment [13] deals with T2, Adenosine receptor A1. The source holds these as a separate data set.
Description: Binding affinity against low affinity component of adenosine A1 receptors from rat brain membranes using [3H]-DPCPX
Experiment [14] has as its target T2, Adenosine receptor A1. This is another data set of the same source.
Description: Binding affinity against adenosine A1 receptors from rat brain membranes using [3H]CCPA
In experiment [15] the target is T1, Adenosine A2 receptor.
Experiment [16] has as its target T1, Adenosine A2 receptor. Description: Maximal NECA stimulation of adenylate cyclase via adenosine A2 receptor in human platelet membranes. Format: cell membranes.
In experiment [17] the target is T3, Adenosine A2 receptor.
The target of experiment [18] is T2, Adenosine receptor A1. Description: Inhibition of adenylate cyclase via Adenosine A1 receptor in rat fat cell membranes. Format: functional, Membrane.
Experiment [19] concerns the target T3, Adenosine A2 receptor. In words: Binding affinity against A2 adenosine receptors from rat striatal membranes with 50 nM CPA using [3H]NECA.
The target in experiment [20] is T1, Adenosine A2 receptor. In words: Maximal NECA stimulation of adenylate cyclase via Adenosine A2 receptor in human platelet membranes. Format: cell membranes.
Experiment [21] has as its target T2, Adenosine receptor A1. Description: Inhibition of adenylate cyclase via A1 receptors in rat fat cell membranes. Type of experiment: functional, Membrane.
Experiment [22] concerns the target Adenosine A2a receptor (Rattus norvegicus) (UniProt P30543). In words: Binding affinity against Adenosine A2 receptor from rat striatal membranes with 50 nM CPA using [3H]-NECA.
The target of experiment [23] is T1, Adenosine A2 receptor. In words: Binding affinity against Adenosine A2 receptor from human platelet membranes using [3H]NECA.
The target of experiment [24] is T2, Adenosine receptor A1. Description: Binding affinity against A1 adenosine receptors from rat brain membranes using [3H]CCPA.
Experiment [25] has as its target Adenosine A2 receptor (Rattus norvegicus) (UniProt P29276+P30543). Description: Binding affinity against Adenosine A2 receptor from rat striatal membranes with 50 nM CPA using [3H]NECA.

Chain of Adenosine A2a receptor (Rattus norvegicus) (P30543 whole entry, looked up): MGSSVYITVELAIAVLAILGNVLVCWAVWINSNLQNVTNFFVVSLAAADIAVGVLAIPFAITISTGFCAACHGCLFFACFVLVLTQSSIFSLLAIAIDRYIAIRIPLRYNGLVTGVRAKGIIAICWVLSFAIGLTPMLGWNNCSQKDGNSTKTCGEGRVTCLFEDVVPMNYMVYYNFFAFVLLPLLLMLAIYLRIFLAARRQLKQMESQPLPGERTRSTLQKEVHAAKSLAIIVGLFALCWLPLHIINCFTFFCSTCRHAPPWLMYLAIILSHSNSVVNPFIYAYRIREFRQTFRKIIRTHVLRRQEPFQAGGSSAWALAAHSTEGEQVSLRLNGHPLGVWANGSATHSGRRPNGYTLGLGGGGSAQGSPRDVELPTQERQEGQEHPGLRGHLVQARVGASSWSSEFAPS

For `CCCCCCC#Cc1nc(N)c2ncn(C3O[C@H](C(=O)NCC)[C@@H](O)[C@H]3O)c2n1` (some centres undefined), at Adenosine A2 receptor [1], the Emax came out at 100%. The Ki at Adenosine A2 receptor [2] came out at 159 nM; at Adenosine A2 receptor [5], 14.8 nM. In addition, the pKi at Adenosine receptor A1 [3] is 5.53; at Adenosine receptor A1 [8] it was 7.19; on Adenosine receptor A1 [9], 7.17. Besides, the figures for the EC50 at Adenosine A2 receptor [4] and at Adenosine A2 receptor [6] were 13500 nM and 585 nM, respectively. Moreover, in experiment [7], the A2 selectivity came to 23.
With `CCCCCC#Cc1nc(N)c2ncn([C@@H]3O[C@H](CO)[C@@H](O)[C@H]3O)c2n1`, at Adenosine A2 receptor [10], the Emax was 65%. Moreover, the values for the pKi on Adenosine receptor A1 [11], on Adenosine receptor A1 [13] and at Adenosine receptor A1 [14] were 7.49, 5.92 and 7.55, respectively. On Adenosine receptor A1 [12], this compound showed a pIC50 of 5.47. Further, the Ki turned out to be 20.8 nM on Adenosine A2 receptor [15] and 2.8 nM on Adenosine A2 receptor [17]. Moreover, the EC50 on Adenosine A2 receptor [16] stood at 414 nM. The A2 selectivity in experiment [7] turned out to be 8.
Compound `CCCC#Cc1nc(N)c2ncn([C@@H]3O[C@H](CO)[C@@H](O)[C@H]3O)c2n1` registered an Emax at Adenosine A2 receptor [10] of 65%. Moreover, the pKi at Adenosine receptor A1 [11] was 7.80; on Adenosine receptor A1 [13], 6.07; at Adenosine receptor A1 [14], 7.67. The same compound gave a pIC50 against Adenosine receptor A1 [12] of 5.52. For the same compound, the values for the inhibition constant (Ki) on Adenosine A2 receptor [15] and at Adenosine A2 receptor [17] were 7.3 nM and 16.4 nM, respectively. The same compound showed an EC50 at Adenosine A2 receptor [16] of 127 nM. Also, the A2 selectivity in experiment [7] was 24.
Turning to `CCCCCCC#Cc1nc(N)c2ncn([C@@H]3O[C@H](CO)[C@@H](O)[C@H]3O)c2n1`, the Emax at Adenosine A2 receptor [10] amounted to 65%. Also, the pKi on Adenosine receptor A1 [11] is 7.71; on Adenosine receptor A1 [13], 6.08; at Adenosine receptor A1 [14], 7.60. This compound also gave a pIC50 on Adenosine receptor A1 [12] of 5.54. The results for the Ki at Adenosine A2 receptor [15] and at Adenosine A2 receptor [17] were 39.9 nM and 6.3 nM, respectively. Further, on Adenosine A2 receptor [16], the EC50 stood at 681 nM. Besides, in experiment [7], the A2 selectivity worked out at 4.
For `CCCCCC#Cc1nc(N)c2ncn(C3O[C@H](C(=O)NCC)[C@@H](O)[C@H]3O)c2n1` (some centres undefined), the Emax on Adenosine A2 receptor [1] is 100%. In addition, the values for the pKi at Adenosine receptor A1 [3], on Adenosine receptor A1 [8] and at Adenosine receptor A1 [9] were 5.54, 7.05 and 6.77, respectively. Also, the EC50 at Adenosine A2 receptor [4] turned out to be 37.1 nM; on Adenosine A2 receptor [6], 388 nM. Moreover, in experiment [7], the A2 selectivity was 34. Also, the pIC50 against Adenosine receptor A1 [18] is 4.88. Besides, at Adenosine A2 receptor [19], the Ki was 4.7 nM.
Regarding `CCCCC#Cc1nc(N)c2ncn([C@@H]3O[C@H](C(=O)NCC)[C@@H](O)[C@H]3O)c2n1`, at Adenosine A2 receptor [10], the Emax worked out at 100%. For the same compound, the pKi was 6.87 at Adenosine receptor A1 [11], 5.50 on Adenosine receptor A1 [13] and 7.36 on Adenosine receptor A1 [14]. The pIC50 at Adenosine receptor A1 [12] was 5.36. In addition, the Ki was determined as 5.7 nM at Adenosine A2 receptor [15] and 3.8 nM at Adenosine A2 receptor [17]. This compound returned an EC50 at Adenosine A2 receptor [16] of 105 nM. Further, the A2 selectivity in experiment [7] came out at 42.
As to `CCCC#Cc1nc(N)c2ncn([C@@H]3O[C@H](C(=O)NCC)[C@@H](O)[C@H]3O)c2n1`, the EC50 is recorded as 19.5 nM at Adenosine A2 receptor [20] and 62 nM in [22]. In addition, the Emax on Adenosine A2 receptor [1] stood at 100%. For the same compound, the figures for the pIC50 at Adenosine receptor A1 [21] and on Adenosine receptor A1 [18] were 5.57 and 5.79, respectively. The A2 selectivity in [7] was 44; in experiment [25], 2. Moreover, the Ki at Adenosine A2 receptor [23] is recorded as 12.6 nM. Also, the pKi at Adenosine receptor A1 [24] was 7.39; on Adenosine receptor A1 [9], 7.48.
Take `CCCCC#Cc1nc(N)c2ncn([C@@H]3O[C@H](CO)[C@@H](O)[C@H]3O)c2n1`: the Emax on Adenosine A2 receptor [10] turned out to be 65%. In addition, the pKi on Adenosine receptor A1 [11] is 7.90; on Adenosine receptor A1 [13], 6.20; on Adenosine receptor A1 [14], 7.80. In addition, the pIC50 against Adenosine receptor A1 [12] was 5.64.
